Experimental data taken from patent US20240270762A1, “PENICILLIN-BINDING PROTEIN INHIBITORS” (priority 2021, published 2024).
Converted amounts (≈) assume the structure as drawn. Like-named read-outs stand apart in the source and are kept apart here.

Legend:
[1] = molecular target: T1, PBP3 from Escherichia coli (K-12) (Escherichia coli, UniProt P0AD68); experiment: Bocillin-FL fluorescence polarization competition binding, E. coli PBP3
T1 construct: made in house
Procedure, shortened: (§1)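 Purified PBPs pre-incubated with inhibitor (E. coli PBP3 1.5 μM, 30 min; P. aeruginosa PBP3 0.75 μM, A. baumannii PBP1a 1 μM and PBP3 0.2 μM, 15 min), then Bocillin-FL 0.1 μM (0.05 μM for PBP1a) added; FP read up to 60 min. EC50 = concentration halving bound Bocillin-FL.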

[2] = molecular target: T2, PBP3 from Acinetobacter baumannii (ATCC 19606) (Acinetobacter baumannii, UniProt A0ABX6CK25); experiment: Bocillin-FL fluorescence polarization competition binding, A. baumannii PBP3; details: fluorescence polarization competition binding assay using Bocillin-FL; read-out: A. baumannii PBP3 Potency
T2 sequence (A0ABX6CK25 64-610): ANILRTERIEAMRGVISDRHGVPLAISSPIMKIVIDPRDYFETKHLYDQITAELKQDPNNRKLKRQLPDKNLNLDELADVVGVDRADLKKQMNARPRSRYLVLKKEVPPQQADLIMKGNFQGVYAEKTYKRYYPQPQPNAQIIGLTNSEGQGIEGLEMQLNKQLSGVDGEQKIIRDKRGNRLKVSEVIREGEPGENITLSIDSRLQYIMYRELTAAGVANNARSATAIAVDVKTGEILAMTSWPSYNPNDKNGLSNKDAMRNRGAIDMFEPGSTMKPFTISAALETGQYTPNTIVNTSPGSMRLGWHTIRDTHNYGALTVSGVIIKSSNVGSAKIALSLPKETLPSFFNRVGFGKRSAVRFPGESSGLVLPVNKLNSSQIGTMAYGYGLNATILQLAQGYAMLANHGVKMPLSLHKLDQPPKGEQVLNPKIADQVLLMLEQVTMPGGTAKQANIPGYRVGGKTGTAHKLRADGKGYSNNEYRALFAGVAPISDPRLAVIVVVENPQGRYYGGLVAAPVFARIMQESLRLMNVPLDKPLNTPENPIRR
Procedure, shortened: as §1

A. baumannii ATCC 17978 = experiment: microbe, parasite or virus in culture; format: cell-based; details: Acinetobacter baumannii, ATCC17978, read-out: MIC, A. baumannii ATCC 17978
P. aeruginosa ATCC 35151 = experiment: microbe, parasite or virus in culture; format: cell-based; details: Pseudomonas aeruginosa, ATCC35151, read-out: Minimum inhibitory concentration, P. aeruginosa ATCC 35151
[3] = test system: P. aeruginosa (ΔmexAB-oprM); experiment: Broth microdilution MIC in iron-depleted CAMHB (IDM); format: cell-based; details: Pseudomonas aeruginosa; iron-depleted CAMHB (IDM); […]; read-out: Minimum inhibitory concentration, P. aeruginosa ΔmexAB-oprM
P. aeruginosa CDC-0054 = experiment: microbe, parasite or virus in culture; format: cell-based; details: Pseudomonas aeruginosa, CDC0054, read-out: Minimum inhibitory concentration, P. aeruginosa CDC-0054
[4] = test system: N. gonorrhoeae ATCC 49226; experiment: Liquid broth MIC in Fastidious broth; details: Neisseria gonorrhoeae
Description: Additional antibacterial testing of the series was performed in 8 reference strains of N. gonorrhoeae (ATCC 49226, FA1090, MS 11, WHO G, WHO L, WHO M, WHO K, WHO X, WHO Z, WHO Q, CDC-0197). ATCC 49226, FA1090, MS11, WHO G, WHO L, and WHO M produce wild type or wild-type like PBP2. WHO K, WHO X, WHO Z, WHO Q, and CDC-0197 produce mosaic PBP2. Liquid broth-based assays were used for antibacterial testing of PBP inhibitors in Neisseria gonorrhoeae. Briefly, cryo-preserved bacterial cultures of clinical strains were streaked for isolation on Chocolate Agar (72 g/L (2×) GC Agar Base (BD #228950) and 2% (2×) Hemoglobin was autoclaved at 121° C. for 20 minutes to sterilize. Once cooled to ˜50° C. the 2×GC Agar Base and 2× Hemoglobin solutions are combined and 1% IsoVitaleX Enrichment (BD #211876) was added to the solution). Strains were incubated at 36° C. and 5% CO2 to allow growth of colonies, 24 hours before inoculum preparation. 2-fold serial dilutions of test compounds were conducted in a 96 well plate with a final volume of 75 μL per well at 2-fold the final desired concentration in Fastidious broth (Remel #R07664). For preparation of assay inoculum, a direct suspension was prepared by aseptically swabbing 10-15 colonies from agar plates into culture tubes containing 2 mL of fresh sterile saline. After the dilution plates were set up, direct suspensions were then diluted in a cuvette containing sterile saline and the optical density was measured at 600 nm. Inocula were diluted such that 75 μL of this culture in Fastidious broth results in a starting bacterial concentration of 5×10^5 CFU/mL when added to the dilution plates. The plates were incubated for ˜24 hours at 36° C. and 5% CO2.

N. gonorrhoeae MS11 = experiment: Liquid broth MIC in Fastidious broth; details: Neisseria gonorrhoeae
N. gonorrhoeae WHO K = experiment: Liquid broth MIC in Fastidious broth; details: Neisseria gonorrhoeae
N. gonorrhoeae WHO Z = experiment: Liquid broth MIC in Fastidious broth; details: Neisseria gonorrhoeae
[5] = ATCC49226, read-out: Minimum Inhibitory Concentration, ATCC 49226
[6] = MS11, read-out: Minimum Inhibitory Concentration, MS11
[7] = read-out: Minimum Inhibitory Concentration, WHO K
[8] = read-out: Minimum Inhibitory Concentration, WHO Z
[9] = ATCC49226, read-out: Minimum Inhibitory Concentration (MIC), N. gonorrhoeae ATCC 49226
[10] = MS11, read-out: Minimum Inhibitory Concentration (MIC), N. gonorrhoeae MS11
[11] = read-out: Minimum Inhibitory Concentration (MIC), N. gonorrhoeae WHO K
[12] = read-out: Minimum Inhibitory Concentration (MIC), N. gonorrhoeae WHO Z

T1 sequence (P0AD68 1-577): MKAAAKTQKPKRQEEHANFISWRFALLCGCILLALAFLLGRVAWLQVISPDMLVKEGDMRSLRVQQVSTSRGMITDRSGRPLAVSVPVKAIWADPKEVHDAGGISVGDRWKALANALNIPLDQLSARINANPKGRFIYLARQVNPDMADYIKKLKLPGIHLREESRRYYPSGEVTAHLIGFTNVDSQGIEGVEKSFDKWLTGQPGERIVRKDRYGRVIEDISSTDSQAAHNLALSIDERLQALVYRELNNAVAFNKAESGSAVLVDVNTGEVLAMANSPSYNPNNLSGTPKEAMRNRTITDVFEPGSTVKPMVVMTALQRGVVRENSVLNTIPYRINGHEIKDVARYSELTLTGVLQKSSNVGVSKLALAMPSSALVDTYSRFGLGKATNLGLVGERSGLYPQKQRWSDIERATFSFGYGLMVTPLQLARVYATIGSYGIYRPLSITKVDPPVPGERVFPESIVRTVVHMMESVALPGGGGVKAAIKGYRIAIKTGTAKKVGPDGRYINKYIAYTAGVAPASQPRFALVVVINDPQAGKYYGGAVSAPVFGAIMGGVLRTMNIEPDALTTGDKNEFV

## O=C(NCCN1CCN(C(=O)NC(C(=O)N[C@H]2Cc3ccc(F)c(C(=O)O)c3OB2O)c2cc(F)c(O)c(O)c2Cl)C1=O)Nc1cccc(O)c1 (stereo partly drawn) [Example 249, (3R)-3-(2-(2-chloro-5-fluoro-3,4-dihydroxyphenyl)-2-(3-(2-(3-(3-hydroxyphenyl)ureido)ethyl)-2-oxoimidazolidine-1-carboxamido)acetamido)-7-fluoro-2-hydroxy-3,4-dihydro-2H-benzo[e][1,2]oxaborinine-8-carboxylic acid]
[1]
  EC50: < 10 µM
[2]
  IC50: < 10 µM
A. baumannii ATCC 17978
  MIC: < 1 µg/mL
P. aeruginosa ATCC 35151
  MIC: < 1 µg/mL
[3]
  MIC: < 1 µg/mL
P. aeruginosa CDC-0054
  MIC: 2 to 4 µg/mL (≈ 2.73 to 5.46 µM)
[4]; [5]
  MIC: 16 to 32 µg/mL (≈ 21.8 to 43.7 µM)
N. gonorrhoeae MS11; [6]
  MIC: 16 to 32 µg/mL (≈ 21.8 to 43.7 µM)
N. gonorrhoeae WHO K; [7]
  MIC: > 64 µg/mL
N. gonorrhoeae WHO Z; [8]
  MIC: 16 to 32 µg/mL (≈ 21.8 to 43.7 µM)

## O=C(NCCCN1CCN(C(=O)NC(C(=O)N[C@H]2Cc3ccc(F)c(C(=O)O)c3OB2O)c2cc(F)c(O)c(O)c2Cl)C(=O)C1=O)c1ccccc1 (stereo partly drawn) [Example 202, (3R)-3-(2-(4-(3-benzamidopropyl)-2,3-dioxopiperazine-1-carboxamido)-2-(2-chloro-5-fluoro-3,4-dihydroxyphenyl)acetamido)-7-fluoro-2-hydroxy-3,4-dihydro-2H-benzo[e][1,2]oxaborinine-8-carboxylic acid]
[1]
  EC50: < 10 µM
[2]
  IC50: < 10 µM
A. baumannii ATCC 17978
  MIC: < 1 µg/mL
P. aeruginosa ATCC 35151
  MIC: < 1 µg/mL
[3]
  MIC: < 1 µg/mL
P. aeruginosa CDC-0054
  MIC: < 1 µg/mL
[4]; [9]
  MIC: 16 to 32 µg/mL (≈ 21.5 to 43 µM)
N. gonorrhoeae MS11; [10]
  MIC: 16 to 32 µg/mL (≈ 21.5 to 43 µM)
N. gonorrhoeae WHO K; [11]
  MIC: > 64 µg/mL
N. gonorrhoeae WHO Z; [12]
  MIC: > 64 µg/mL

## O=C(NCCCN1CCN(C(=O)NC(C(=O)N[C@H]2Cc3ccc(F)c(C(=O)O)c3OB2O)c2cc(F)c(O)c(O)c2Cl)C1=O)Nc1cccnc1 (stereo partly drawn) [Example 259, (3R)-3-(2-(2-chloro-5-fluoro-3,4-dihydroxyphenyl)-2-(2-oxo-3-(3-(3-(pyridin-3-yl)ureido)propyl)imidazolidine-1-carboxamido)acetamido)-7-fluoro-2-hydroxy-3,4-dihydro-2H-benzo[e][1,2]oxaborinine-8-carboxylic acid]
[1]
  EC50: < 10 µM
[2]
  IC50: < 10 µM
A. baumannii ATCC 17978
  MIC: < 1 µg/mL
P. aeruginosa ATCC 35151
  MIC: < 1 µg/mL
[3]
  MIC: < 1 µg/mL
P. aeruginosa CDC-0054
  MIC: 2 to 4 µg/mL (≈ 2.73 to 5.47 µM)
[4]; [5]
  MIC: 16 to 32 µg/mL (≈ 21.9 to 43.7 µM)
N. gonorrhoeae MS11; [6]
  MIC: 16 to 32 µg/mL (≈ 21.9 to 43.7 µM)
N. gonorrhoeae WHO K; [7]
  MIC: > 64 µg/mL
N. gonorrhoeae WHO Z; [8]
  MIC: 16 to 32 µg/mL (≈ 21.9 to 43.7 µM)

## O=C(NCCN1CCN(C(=O)NC(C(=O)N[C@H]2Cc3ccc(F)c(C(=O)O)c3OB2O)c2cc(F)c(O)c(O)c2Cl)C1=O)c1ccncc1 (stereo partly drawn) [Example 245, (3R)-3-(2-(2-chloro-5-fluoro-3,4-dihydroxyphenyl)-2-(3-(2-(isonicotinamido)ethyl)-2-oxoimidazolidine-1-carboxamido)acetamido)-7-fluoro-2-hydroxy-3,4-dihydro-2H-benzo[e][1,2]oxaborinine-8-carboxylic acid]
[1]
  EC50: 10 to 50 µM
[2]
  IC50: < 10 µM
A. baumannii ATCC 17978
  MIC: < 1 µg/mL
P. aeruginosa ATCC 35151
  MIC: < 1 µg/mL
[3]
  MIC: < 1 µg/mL
P. aeruginosa CDC-0054
  MIC: 2 to 4 µg/mL (≈ 2.85 to 5.69 µM)
[4]; [9]
  MIC: 16 to 32 µg/mL (≈ 22.8 to 45.5 µM)
N. gonorrhoeae MS11; [10]
  MIC: 16 to 32 µg/mL (≈ 22.8 to 45.5 µM)
N. gonorrhoeae WHO K; [11]
  MIC: > 64 µg/mL
N. gonorrhoeae WHO Z; [12]
  MIC: > 64 µg/mL

## O=C(NCCCN1CCN(C(=O)N[C@H](C(=O)N[C@H]2Cc3ccc(F)c(C(=O)O)c3OB2O)c2cc(F)c(O)c(O)c2Cl)C1=O)c1ccccc1 [Example 252, (R)-3-((S)-2-(3-(3-benzamidopropyl)-2-oxoimidazolidine-1-carboxamido)-2-(2-chloro-5-fluoro-3,4-dihydroxyphenyl)acetamido)-7-fluoro-2-hydroxy-3,4-dihydro-2H-benzo[e][1,2]oxaborinine-8-carboxylic acid]
[1]
  EC50: > 250 µM
[2]
  IC50: 50 to 250 µM
A. baumannii ATCC 17978
  MIC: 8 to 16 µg/mL (≈ 11.2 to 22.4 µM)
P. aeruginosa ATCC 35151
  MIC: 2 to 4 µg/mL (≈ 2.79 to 5.59 µM)
[3]
  MIC: > 128 µg/mL
P. aeruginosa CDC-0054
  MIC: > 128 µg/mL
[4]; [5]
  MIC: > 64 µg/mL
N. gonorrhoeae MS11; [6]
  MIC: > 64 µg/mL
N. gonorrhoeae WHO K; [7]
  MIC: > 64 µg/mL
N. gonorrhoeae WHO Z; [8]
  MIC: > 64 µg/mL

## O=C(CN1CCN(C(=O)NC(C(=O)N[C@H]2Cc3ccc(F)c(C(=O)O)c3OB2O)c2cc(F)c(O)c(O)c2Cl)C(=O)C1=O)Nc1nccs1 (stereo partly drawn) [Example 235, (3R)-3-(2-(2-chloro-5-fluoro-3,4-dihydroxyphenyl)-2-(2,3-dioxo-4-(2-oxo-2-(thiazol-2-ylamino)ethyl)piperazine-1-carboxamido)acetamido)-7-fluoro-2-hydroxy-3,4-dihydro-2H-benzo[e][1,2]oxaborinine-8-carboxylic acid]
[1]
  EC50: < 10 µM
[2]
  IC50: < 10 µM
A. baumannii ATCC 17978
  MIC: < 1 µg/mL
P. aeruginosa ATCC 35151
  MIC: < 1 µg/mL
[3]
  MIC: < 1 µg/mL
P. aeruginosa CDC-0054
  MIC: 8 to 16 µg/mL (≈ 11.1 to 22.1 µM)
[4]; [9]
  MIC: 16 to 32 µg/mL (≈ 22.1 to 44.3 µM)
N. gonorrhoeae MS11; [10]
  MIC: 16 to 32 µg/mL (≈ 22.1 to 44.3 µM)
N. gonorrhoeae WHO K; [11]
  MIC: 16 to 32 µg/mL (≈ 22.1 to 44.3 µM)
N. gonorrhoeae WHO Z; [12]
  MIC: 16 to 32 µg/mL (≈ 22.1 to 44.3 µM)

## CN(CCN1CCN(C(=O)N[C@@H](C(=O)N[C@H]2Cc3ccc(F)c(C(=O)O)c3OB2O)c2cc(F)c(O)c(O)c2Cl)C(=O)C1=O)Cc1ccc(C(N)=O)cc1 [Example 226, (R)-3-((R)-2-(4-(2-((4-carbamoylbenzyl)(methyl)amino)ethyl)-2,3-dioxopiperazine-1-carboxamido)-2-(2-chloro-5-fluoro-3,4-dihydroxyphenyl)acetamido)-7-fluoro-2-hydroxy-3,4-dihydro-2H-benzo[e][1,2]oxaborinine-8-carboxylic acid]
[1]
  EC50: < 10 µM
[2]
  IC50: < 10 µM
A. baumannii ATCC 17978
  MIC: < 1 µg/mL
P. aeruginosa ATCC 35151
  MIC: < 1 µg/mL
[3]
  MIC: < 1 µg/mL
P. aeruginosa CDC-0054
  MIC: 8 to 16 µg/mL (≈ 10.4 to 20.7 µM)
[4]; [9]
  MIC: 16 to 32 µg/mL (≈ 20.7 to 41.4 µM)
N. gonorrhoeae MS11; [10]
  MIC: 16 to 32 µg/mL (≈ 20.7 to 41.4 µM)
N. gonorrhoeae WHO K; [11]
  MIC: > 64 µg/mL
N. gonorrhoeae WHO Z; [12]
  MIC: 16 to 32 µg/mL (≈ 20.7 to 41.4 µM)

## O=C(NCCN1CCN(C(=O)N[C@@H](C(=O)N[C@H]2Cc3ccc(F)c(C(=O)O)c3OB2O)c2cc(F)c(O)c(O)c2Cl)C(=O)C1=O)Nc1cccnc1 [Example 222, (R)-3-((R)-2-(2-chloro-5-fluoro-3,4-dihydroxyphenyl)-2-(2,3-dioxo-4-(2-(3-(pyridin-3-yl)ureido)ethyl)piperazine-1-carboxamido)acetamido)-7-fluoro-2-hydroxy-3,4-dihydro-2H-benzo[e][1,2]oxaborinine-8-carboxylic acid]
[1]
  EC50: < 10 µM
[2]
  IC50: < 10 µM
A. baumannii ATCC 17978
  MIC: < 1 µg/mL
P. aeruginosa ATCC 35151
  MIC: < 1 µg/mL
[3]
  MIC: < 1 µg/mL
P. aeruginosa CDC-0054
  MIC: 2 to 4 µg/mL (≈ 2.68 to 5.36 µM)
[4]; [9]
  MIC: 16 to 32 µg/mL (≈ 21.5 to 42.9 µM)
N. gonorrhoeae MS11; [10]
  MIC: 16 to 32 µg/mL (≈ 21.5 to 42.9 µM)
N. gonorrhoeae WHO K; [11]
  MIC: > 64 µg/mL
N. gonorrhoeae WHO Z; [12]
  MIC: > 64 µg/mL
